From patent publication US6740666B2, “Substituted 8-arylquinoline phosphodiesterase-4 inhibitors” (Merck & Co., Inc., priority 2000, dated 2004)

Test: Formation of metabolite in vivo after administration
Settings: Example 19 (a PDE4 inhibitor) formed when Example 14 is administered to a mammal
Method: For example, Example 19, (5-{(E)-2-(3-{6-[1-methyl-1-(methylsulfonyl)ethyl]-8-quinolinyl}phenyl)-1-[4-(methylsulfonyl)phenyl]ethenyl}-1,2,4-oxadiazol-3-yl)methanol: [drawing 2]
is administered. Accordingly, the present invention includes prodrugs that form PDE4 inhibitors in vivo as a metabolite after administering such prodrugs to a mammal. Further, this invention includes a method of treatment by a step of administering a prodrug to form in vivo an effective amount of a PDE4 inhibitor described by Formula I.

- metabolite formed in vivo: formed in vivo as a metabolite
Structure (SMILES): Cc1noc(/C(=C/c2cccc(-c3cc(C(C)(C)S(C)(=O)=O)cc4cccnc34)c2)c2ccc(S(C)(=O)=O)cc2)n1 [Example 14, 6-[1-methyl-1-(methylsulfonyl)ethyl]-8-[3-[(E)-2-[3-methyl-1,2,4-oxadiazol-5-yl]-2-[4-(methylsulfonyl)phenyl]ethenyl]phenyl]quinoline]
